Results from ChEMBL document CHEMBL4706559, “New indolylarylsulfone non-nucleoside reverse transcriptase inhibitors show low nanomolar inhibition of single and double HIV-1 mutant strains” (Eur J Med Chem, 2020).

Legend:
[1] = tested on: Human immunodeficiency virus 1; assay: Antiviral activity against HIV-1 NL4-3 infected in human MT-4 cells assessed as virus induced cytopathic effect by MTT assay; format: functional, organism-based; settings: Human immunodeficiency virus 1, NL4-3, MT4
[2] = Cytotoxicity against human MT-4 cells assessed as reduction in cell viability by MTT assay; format: cell-based, MT4
[3] = Selectivity ratio of CC50 for human MT4 cells to EC50 for antiviral activity against HIV-1 NL4-3 infected in human MT4 cells; format: toxicity, cell-based; settings: read-out: Ratio CC50/EC50
[4] = tested on: Human immunodeficiency virus 1; assay: Antiviral activity against HIV1 harboring RT K103N mutant infected in human MT4 cells assessed as protection against virus-induced cytopathic effect by MTT assay; format: functional, organism-based; settings: Human immunodeficiency virus 1, MT4
[5] = tested on: Human immunodeficiency virus 1; assay: Antiviral activity against HIV1 harboring RT Y181C mutant infected in human MT4 cells assessed as protection against virus-induced cytopathic effect by MTT assay; format: functional, organism-based; settings: Human immunodeficiency virus 1, MT4
[6] = tested on: Human immunodeficiency virus 1; assay: Antiviral activity against HIV1 harboring RT Y188L mutant infected in human MT4 cells assessed as protection against virus-induced cytopathic effect by MTT assay; format: functional, organism-based; settings: Human immunodeficiency virus 1, MT4
[7] = tested on: Human immunodeficiency virus 1; assay: Antiviral activity against HIV1 harboring RT K103N/Y181C double mutant infected in human MT4 cells assessed as protection against virus-induced cytopathic effect by MTT assay; format: functional, organism-based; settings: Human immunodeficiency virus 1, MT4
[8] = tested on: Human immunodeficiency virus 1; assay: Resistance index, ratio of EC50 for antiviral activity against HIV1 harboring RT Y188L mutant infected in human MT4 cells to EC50 for antiviral activity against HIV1 NL4-3 infected in human MT4 cells; format: functional
[9] = tested on: Human immunodeficiency virus 1; assay: Resistance index, ratio of EC50 for antiviral activity against HIV1 harboring RT K103N/Y181C double mutant infected in human MT4 cells to EC50 for antiviral activity against HIV1 NL4-3 infected in human MT4 cells; format: functional
[10] = molecular target: Human immunodeficiency virus type 1 reverse transcriptase (Human immunodeficiency virus 1, UniProt Q72547); assay: Inhibition of RNA-dependent DNA polymerase activity of wild type recombinant HIV-1 His-tagged p66/p51 reverse transcriptase assessed as inhibition of [3H]dTTP incorporation using poly(rA)/oligo(dT) as templates incubated for 15 mins by MicroBeta scintillation counting method
[11] = molecular target: Human immunodeficiency virus type 1 reverse transcriptase (Human immunodeficiency virus 1, UniProt Q72547, K103N); assay: Inhibition of RNA-dependent DNA polymerase activity of recombinant HIV-1 p66/p51 reverse transcriptase K103N mutant assessed as inhibition of [3H]dTTP incorporation using poly(rA)/oligo(dT) as templates incubated for 15 mins by MicroBeta scintillation counting method
[12] = Inhibition of RNA-dependent DNA polymerase activity of recombinant HIV-1 p66/p51 reverse transcriptase Y188L mutant assessed as inhibition of [3H]dTTP incorporation using poly(rA)/oligo(dT) as templates incubated for 15 mins by MicroBeta scintillation counting method; set-up: species or system Human immunodeficiency virus 1
[13] = Inhibition of RNA-dependent DNA polymerase activity of recombinant HIV-1 p66/p51 reverse transcriptase K103N/Y181C mutant assessed as inhibition of [3H]dTTP incorporation using poly(rA)/oligo(dT) as templates incubated for 15 mins by MicroBeta scintillation counting method; set-up: species or system Human immunodeficiency virus 1
[14] = tested on: Human immunodeficiency virus 1; assay: Resistance index, ratio of EC50 for antiviral activity against HIV1 harboring RT Y181C mutant infected in human MT4 cells to EC50 for antiviral activity against HIV1 NL4-3 infected in human MT4 cells; format: functional
[15] = tested on: Human immunodeficiency virus 1; assay: Resistance index, ratio of EC50 for antiviral activity against HIV1 harboring RT K103N mutant infected in human MT4 cells to EC50 for antiviral activity against HIV1 NL4-3 infected in human MT4 cells; format: functional

| SMILES | EC50 [1] | CC50 [2] | selectivity ratio [3] | EC50 [4] | EC50 [5] | EC50 [6] | EC50 [7] | Ratio EC50 [8] | Ratio EC50 [9] | IC50 [10] | IC50 [11] | IC50 [12] | IC50 [13] | Ratio EC50 [14] | Ratio EC50 [15] |
| --- | --- | --- | --- | --- | --- | --- | --- | --- | --- | --- | --- | --- | --- | --- | --- |
| Cc1cc(C)cc(S(=O)(=O)c2c(C(=O)Nc3ccc(O)cc3)[nH]c3ccc(Cl)cc23)c1 | < 0.7 nM | 18100 nM | > 25800 | < 0.7 nM | < 0.7 nM | 989 nM | 967 nM | >1413 | >1381 | 69 nM | 106 nM | 81 nM | 375 nM |  |  |
| Cc1cc(C)cc(S(=O)(=O)c2c(C(=O)NCc3ccc(CO)cc3)[nH]c3ccc(Cl)cc23)c1 | < 0.7 nM | 31100 nM | > 44400 | < 0.7 nM | 22 nM |  | 3290 nM |  | >4703 | 38 nM | 79 nM | 178 nM | 188 nM | >31 |  |
| O=C1Nc2ccc(Cl)cc2[C@@](C#CC2CC2)(C(F)(F)F)O1 [EFAVIRENZ] |  | > 15800 nM |  |  |  |  | > 317 nM |  |  |  |  |  |  |  |  |
| Cc1cc(C)cc(S(=O)(=O)c2c(C(=O)NCCc3ccccc3O)[nH]c3ccc(Cl)cc23)c1 | < 0.7 nM | 23800 nM | > 34000 | < 0.7 nM | < 0.7 nM | 207 nM | 331 nM | >296 | >473 |  |  |  |  |  |  |
| COc1cc(CNC(=O)c2[nH]c3ccc(Cl)cc3c2S(=O)(=O)c2cc(C)cc(C)c2)ccc1O | < 0.6 nM | 28700 nM | > 47800 | < 0.6 nM | 2 nM | 220 nM | 1120 nM | 367 | 1871 |  |  |  |  | 3.3 |  |
| Cc1cc(C)cc(S(=O)(=O)c2c(C(=O)Nc3cccc(O)c3)[nH]c3ccc(Cl)cc23)c1 | < 0.7 nM | 24600 nM | > 35200 | < 0.7 nM | 44 nM | 455 nM | 6090 nM | >650 | >8698 |  |  |  |  | >62 |  |
| Cc1cc(C)cc(S(=O)(=O)c2c(C(=O)NC(C)c3cccc(O)c3)[nH]c3ccc(Cl)cc23)c1 (configuration not stated) | < 0.7 nM | 16000 nM | > 22800 | < 0.7 nM | 10 nM | 166 nM | 600 nM | 237 | 857 |  |  |  |  | 14 |  |
| Cc1cc(C)cc(S(=O)(=O)c2c(C(N)=O)[nH]c3ccc(Cl)cc23)c1 |  |  |  |  |  |  | 650 nM |  |  |  |  |  |  |  |  |
| Cc1cn([C@H]2C[C@H](N=[N+]=[N-])[C@@H](CO)O2)c(=O)[nH]c1=O [ZIDOVUDINE] | 3.7 nM | > 30600 nM | > 8270 |  |  |  | 16 nM | 8.9 |  |  |  |  |  | 1.6 | 4.3 |
| NC(=O)c1[nH]c2ccc(Cl)cc2c1S(=O)(=O)c1ccccc1 [L-737126] |  |  |  |  |  |  | 8000 nM |  |  |  |  |  |  |  |  |
| Cc1cc(C)cc(S(=O)(=O)c2c(C(=O)NCC(=O)NCc3ccccc3O)[nH]c3ccc(Cl)cc23)c1 | < 0.6 nM | > 47300 nM | > 78900 | 151 nM | 1.9 nM | 1.7 nM | 4620 nM | >2.8 | >7701 |  |  |  |  | >3.2 | >251 |
| Cc1cc(C)cc(S(=O)(=O)c2c(C(=O)NCC(=O)NCc3cccc(O)c3)[nH]c3ccc(Cl)cc23)c1 | < 0.6 nM | > 47500 nM | > 79200 | 437 nM | 7.6 nM | 3950 nM | 3560 nM | >6590 | >5925 |  |  |  |  | >13 | >728 |
